Test results from ChEMBL document CHEMBL1201862, “PubChem BioAssay data set” (2004).
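96-well plates; 48 h exposure; 5 concentrations. Endpoints by linear interpolation between flanking doses. Not reached: highest tested concentration assigned. GI50: concentration for 50% inhibition of growth.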 Active and inactive are the calls of the source. Cut-off read from the data, not from the text of the source: active = GI50 up to about 1.1 µM and inactive = higher.

Columns and labels:
Test in all cases: NCI-60 cell line screen, 48 h
MCF7 = tested on: MCF7
UACC-257 = tested on: UACC-257
IGROV-1 = tested on: IGROV-1
Malme-3M = tested on: Malme-3M
NCI-H23 = tested on: NCI-H23
NCI-H226 = tested on: NCI-H226
PC-3 = tested on: PC-3
RPMI-8226 = tested on: RPMI-8226
A498 = tested on: A498
HOP-62 = tested on: HOP-62
BT-549 = tested on: BT-549
HCC 2998 = tested on: HCC 2998
SK-MEL-5 = tested on: SK-MEL-5
Hs-578T = tested on: Hs-578T
SF-268 = tested on: SF-268
A549 = tested on: A549
CAKI-1 = tested on: CAKI-1
DU-145 = tested on: DU-145
NCI/ADR-RES = tested on: NCI/ADR-RES
SK-OV-3 = tested on: SK-OV-3

Structure (SMILES)	GI50 (MCF7)	GI50 (UACC-257)	GI50 (IGROV-1)	GI50 (Malme-3M)	GI50 (NCI-H23)	GI50 (NCI-H226)	GI50 (PC-3)	GI50 (RPMI-8226)	GI50 (A498)	GI50 (HOP-62)	GI50 (BT-549)	GI50 (HCC 2998)	GI50 (SK-MEL-5)	GI50 (Hs-578T)	GI50 (SF-268)	GI50 (A549)	GI50 (CAKI-1)	GI50 (DU-145)	GI50 (NCI/ADR-RES)	GI50 (SK-OV-3)
CC1OC(OC2C(O)COC(OC3C(C)OC(OC4C(OC(=O)[C@]56CCC(C)(C)C[C@@H]5C5=CCC7[C@@]8(C)C[C@H](O)[C@H](OC9OC(CO)C(O)C(OC%10OC(CO)C(O)C(O)C%10O)C9O)[C@@](C)(CO)[C@@H]8CC[C@@]7(C)[C@]5(C)CC6)OCC(O)C4O)C(O)C3OC3OCC(O)C(O)C3O)C2O)C(O)C(O)C1O (stereo partly specified)	17.3 µM (inactive)	4.63 µM (inactive)	6.12 µM (inactive)	10.1 µM (inactive)	4.04 µM (inactive)	7.82 µM (inactive)	4.36 µM (inactive)	13.9 µM (inactive)	2.15 µM (inactive)	6.76 µM (inactive)	9.57 µM (inactive)	2.07 µM (inactive)	4.45 µM (inactive)	15.2 µM (inactive)	12.2 µM (inactive)	2.11 µM (inactive)	4.39 µM (inactive)	7.1 µM (inactive)	10.9 µM (inactive)	14.8 µM (inactive)
O=C(Nc1cccc2ccccc12)c1cc2ccccc2oc1=O	> 100 µM (inactive)	> 100 µM (inactive)	18.5 µM (inactive)	12.5 µM (inactive)	36.7 µM (inactive)	21.8 µM (inactive)	> 100 µM (inactive)	> 100 µM (inactive)	47.9 µM (inactive)	14.5 µM (inactive)	> 100 µM (inactive)	> 100 µM (inactive)	> 100 µM (inactive)	32.8 µM (inactive)	23.3 µM (inactive)	> 100 µM (inactive)	48 µM (inactive)	> 100 µM (inactive)	60.3 µM (inactive)	30.2 µM (inactive)
Cc1cc(N(CCCl)CCCl)ccc1/C=N/NC(=O)Cc1cc(=O)oc2cc(O)ccc12	5.83 µM (inactive)	20.8 µM (inactive)	15.8 µM (inactive)	12.6 µM (inactive)	19.5 µM (inactive)	15.7 µM (inactive)	11.9 µM (inactive)	16 µM (inactive)	13.7 µM (inactive)	19 µM (inactive)	13.4 µM (inactive)	28.2 µM (inactive)	8.51 µM (inactive)	17.2 µM (inactive)	10.2 µM (inactive)	12.2 µM (inactive)	6.4 µM (inactive)	18.5 µM (inactive)	37.6 µM (inactive)	
CC1(C)OC2C(=O)C=C(COCc3ccccc3)C2O1 (stereo unspecified)	34 µM (inactive)	35.5 µM (inactive)	19.8 µM (inactive)	19 µM (inactive)	19.2 µM (inactive)	22.9 µM (inactive)	23.9 µM (inactive)	24.8 µM (inactive)	56.6 µM (inactive)	26.4 µM (inactive)	15.6 µM (inactive)		13.1 µM (inactive)	27 µM (inactive)	25.4 µM (inactive)	> 100 µM (inactive)	35.3 µM (inactive)	44.6 µM (inactive)	37.2 µM (inactive)	9.44 µM (inactive)
NC(=O)c1nnc2c(F)cccc2c1N	40 µM (inactive)	> 100 µM (inactive)	> 100 µM (inactive)	> 100 µM (inactive)	> 100 µM (inactive)	46.6 µM (inactive)	> 100 µM (inactive)	> 100 µM (inactive)	> 100 µM (inactive)	> 100 µM (inactive)	58.9 µM (inactive)	93.1 µM (inactive)	> 100 µM (inactive)	> 100 µM (inactive)	> 100 µM (inactive)	84.5 µM (inactive)	> 100 µM (inactive)	> 100 µM (inactive)	> 100 µM (inactive)	45.2 µM (inactive)
CC(NCCN(C)C)C1CCC2C3CCc4cc(O)ccc4C3CCC12C (stereo unspecified)	2.96 µM (inactive)	2.06 µM (inactive)	4.97 µM (inactive)	1.68 µM (inactive)	4.45 µM (inactive)	17.8 µM (inactive)	2.82 µM (inactive)	2.34 µM (inactive)	4.01 µM (inactive)	3.24 µM (inactive)	17.4 µM (inactive)		1.71 µM (inactive)	4.17 µM (inactive)	5.28 µM (inactive)	3.65 µM (inactive)	2.07 µM (inactive)	6.18 µM (inactive)	2.86 µM (inactive)	3.69 µM (inactive)
Cc1cccc2c(N)c3cccc(C(=O)NCC[N+](C)(C)Cc4ccc(S(C)(=O)=O)cc4)c3nc12	11.5 µM (inactive)	> 100 µM (inactive)	27.9 µM (inactive)	38.5 µM (inactive)	21.8 µM (inactive)	98.2 µM (inactive)	44.2 µM (inactive)	5.61 µM (inactive)	10.8 µM (inactive)	27.7 µM (inactive)	> 100 µM (inactive)	46.7 µM (inactive)	70.5 µM (inactive)	19.9 µM (inactive)	25.1 µM (inactive)	1.44 µM (inactive)	26.1 µM (inactive)	50 µM (inactive)	> 100 µM (inactive)	33.6 µM (inactive)
O=C(O)Cc1cc(Cl)ccc1O	> 100 µM (inactive)	> 100 µM (inactive)	> 100 µM (inactive)	> 100 µM (inactive)	> 100 µM (inactive)	> 100 µM (inactive)	> 100 µM (inactive)	> 100 µM (inactive)	> 100 µM (inactive)	> 100 µM (inactive)	> 100 µM (inactive)	> 100 µM (inactive)	> 100 µM (inactive)	> 100 µM (inactive)	> 100 µM (inactive)	> 100 µM (inactive)	> 100 µM (inactive)	> 100 µM (inactive)	> 100 µM (inactive)	> 100 µM (inactive)
COC(=O)c1c(O)ccc2c1c1c(n2Cc2ccccn2)C(=O)c2ccccc2C1	22.9 µM (inactive)	82.8 µM (inactive)	71 µM (inactive)	> 100 µM (inactive)	> 100 µM (inactive)	> 100 µM (inactive)	16.5 µM (inactive)	13 µM (inactive)	> 100 µM (inactive)	> 100 µM (inactive)	> 100 µM (inactive)		> 100 µM (inactive)	> 100 µM (inactive)	74.5 µM (inactive)	66.1 µM (inactive)	19.1 µM (inactive)	> 100 µM (inactive)	44.4 µM (inactive)	96.2 µM (inactive)
CC1OC(OC2C(O)COC(OC3C(C)OC(OC4C(OC(=O)[C@]56CCC(C)(C)C[C@@H]5C5=CCC7[C@@]8(C)C[C@H](O)[C@H](OC9OC(CO)C(O)C(OC%10OC(CO)C(O)C(O)C%10O)C9O)[C@@](C)(CO)[C@@H]8CC[C@@]7(C)[C@]5(C)CC6)OCC(O)C4O)C(O)C3O)C2O)C(O)C(O)C1O (stereo partly specified)	16.4 µM (inactive)	18.3 µM (inactive)		13.8 µM (inactive)	14.9 µM (inactive)	23.1 µM (inactive)	11 µM (inactive)	18.3 µM (inactive)	11.8 µM (inactive)	14.3 µM (inactive)	22.4 µM (inactive)	16.2 µM (inactive)	16 µM (inactive)	19.5 µM (inactive)	21.4 µM (inactive)	14.4 µM (inactive)	3.19 µM (inactive)	14.6 µM (inactive)	14.5 µM (inactive)	15.7 µM (inactive)
COC1C(=O)CCC2(CO2)C1(O)C1(C)OC1CCC(C)C (stereo unspecified)	54.8 µM (inactive)	> 100 µM (inactive)	48.1 µM (inactive)	30.2 µM (inactive)	22.6 µM (inactive)	> 100 µM (inactive)	25.9 µM (inactive)	> 100 µM (inactive)	> 100 µM (inactive)	54.5 µM (inactive)	> 100 µM (inactive)	47.2 µM (inactive)	21.5 µM (inactive)	84.3 µM (inactive)	78.3 µM (inactive)		> 100 µM (inactive)	5.6 µM (inactive)	> 100 µM (inactive)	> 100 µM (inactive)
CC(CN(C)C)C(=O)/C=C/c1ccc(Cl)c(Cl)c1 (stereo unspecified)	0.307 µM (active)	2.38 µM (inactive)	1.78 µM (inactive)		2.11 µM (inactive)	2.2 µM (inactive)	1.04 µM (active)	0.338 µM (active)	1.78 µM (inactive)	2.96 µM (inactive)	2.14 µM (inactive)	1.94 µM (inactive)	1.6 µM (inactive)	3.69 µM (inactive)	1.85 µM (inactive)	3.33 µM (inactive)	2 µM (inactive)	> 100 µM (inactive)	3.52 µM (inactive)	4.55 µM (inactive)
Cc1ccc(/N=N/c2ccc(N)cc2C)c(S(N)(=O)=O)c1	61.9 µM (inactive)	45.2 µM (inactive)	77.3 µM (inactive)	> 100 µM (inactive)	> 100 µM (inactive)	> 100 µM (inactive)	89.7 µM (inactive)	70.8 µM (inactive)	> 100 µM (inactive)	> 100 µM (inactive)	> 100 µM (inactive)		77.6 µM (inactive)	63 µM (inactive)	> 100 µM (inactive)	50.5 µM (inactive)	> 100 µM (inactive)	> 100 µM (inactive)	76.6 µM (inactive)	> 100 µM (inactive)
Cc1ccsc1/C=N/Nc1nc2ccccc2s1	11.5 µM (inactive)	20.4 µM (inactive)	11 µM (inactive)		31.8 µM (inactive)	19.4 µM (inactive)	14.3 µM (inactive)	19.4 µM (inactive)	2.35 µM (inactive)	8.99 µM (inactive)	71.3 µM (inactive)	63.2 µM (inactive)	20.9 µM (inactive)	23.2 µM (inactive)	21.4 µM (inactive)	16.3 µM (inactive)	15.5 µM (inactive)	26.8 µM (inactive)	21.4 µM (inactive)	12.5 µM (inactive)
